# Activity calls are given as the source filed them. The calls are words filed in the database; no cut-off is given here.
# Columns and labels:
# SARS-CoV-2 [1] = experiment: Antiviral activity against SARS CoV-2 USA-WA1/2020 infected in B6.Cg-Tg(K18-ACE2)2Prlmn/J mouse assessed as log reduction in plaque-forming units in lung at […], po bid measured on day 4 post inoculation; type: functional, Severe acute respiratory syndrome coronavirus 2; details: time 4 day
# Cytochrome P450 1A2 [2] = molecular target: T1, Cytochrome P450 1A2 (Homo sapiens, UniProt P05177); experiment: Induction of CYP1A2 in human hepatocytes assessed as increase in CYP1A2 mRNA level at 20 uM measured after 48 hrs by PCR analysis relative to control; type: ADME, cell-based, Hepatocyte
# T1 sequence (P05177 whole entry): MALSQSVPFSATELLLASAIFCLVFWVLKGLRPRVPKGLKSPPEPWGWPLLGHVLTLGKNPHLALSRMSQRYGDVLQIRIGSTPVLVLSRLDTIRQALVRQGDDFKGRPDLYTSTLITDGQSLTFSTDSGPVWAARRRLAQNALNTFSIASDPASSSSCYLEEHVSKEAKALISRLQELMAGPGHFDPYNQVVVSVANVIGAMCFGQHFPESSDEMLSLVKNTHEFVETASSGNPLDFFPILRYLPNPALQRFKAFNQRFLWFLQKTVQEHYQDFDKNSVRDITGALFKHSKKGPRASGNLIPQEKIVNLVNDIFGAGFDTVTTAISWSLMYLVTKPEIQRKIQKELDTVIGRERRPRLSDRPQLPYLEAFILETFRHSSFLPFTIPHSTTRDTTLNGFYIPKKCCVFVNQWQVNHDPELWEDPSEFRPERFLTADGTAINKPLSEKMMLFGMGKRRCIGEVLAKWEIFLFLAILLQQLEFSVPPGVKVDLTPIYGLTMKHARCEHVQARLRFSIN
# [3] = Plasma stability in dog assessed as epimerization at 1 uM measured upto 3 hrs by LC-MS/MS analysis; type: ADME, cell-free, Canis lupus familiaris
# CYP3A = CYP3A (Homo sapiens, UniProt P08684+P20815+P24462+Q9HB55); experiment: Time dependent inhibition of CYP3A in human liver microsomes assessed as inhibition constant; type: ADME, Microsome
# [4] = Plasma stability in rat assessed as epimerization at 1 uM measured upto 3 hrs by LC-MS/MS analysis; type: ADME, cell-free
# SARS-CoV-2 [5] = experiment: Antiviral activity against SARS CoV-2 USA-WA1/2020 infected in po dosed B6.Cg-Tg(K18-ACE2)2Prlmn/J mouse assessed as reduction in viral RNA level administered orally twice daily and measured on day 4 post inoculation by RT-PCR analysis; type: functional, organism-based; details: Severe acute respiratory syndrome coronavirus 2, dose 100-500 mg/kg, time 4.0 day
# Cytochrome P450 1A2 [6] = molecular target: T1, Cytochrome P450 1A2; experiment: Reversible inhibition of CYP1A2 in human liver microsomes using phenacetin as substrate incubated for 5 mins in presence of NADPH-generating system by LC-MS/MS analysis; type: ADME, Microsome
# [7] = Plasma protein binding in human assessed as unbound fraction at 1 uM; type: ADME, cell-free
# SARS-CoV-2 [8] = experiment: Antiviral activity against SARS CoV-2 USA-WA1/2020 infected in B6.Cg-Tg(K18-ACE2)2Prlmn/J mouse assessed as protection against body weight loss at 100 to 500 mg/kg, po bid measured daily for 4 days post inoculation; type: functional, organism-based; details: Severe acute respiratory syndrome coronavirus 2, dose 100-500 mg/kg, time 4.0 day
# SARS-CoV-2 [9] = experiment: Antiviral activity against SARS CoV-2 USA-WA1/2020 infected in B6.Cg-Tg(K18-ACE2)2Prlmn/J mouse assessed as fold reduction in viral load in lung at 500 mg/kg, po bid measured on day 4 post inoculation; type: functional, Severe acute respiratory syndrome coronavirus 2; details: time 4 day
# [10] = MRT in dog at 3 mg/kg, po or 1 mg/kg, iv measured upto 24 hrs by LC-MS analysis; type: ADME, organism-based, Canis lupus familiaris; details: in vivo
# Cytochrome P450 2C9 = Cytochrome P450 2C9 (Homo sapiens, UniProt P11712); experiment: Reversible inhibition of CYP2C9 in human liver microsomes using diclofenac as substrate incubated for 5 mins in presence of NADPH-generating system by LC-MS/MS analysis; type: ADME, Microsome
# Sequence of Cytochrome P450 2C9 (P11712 whole entry): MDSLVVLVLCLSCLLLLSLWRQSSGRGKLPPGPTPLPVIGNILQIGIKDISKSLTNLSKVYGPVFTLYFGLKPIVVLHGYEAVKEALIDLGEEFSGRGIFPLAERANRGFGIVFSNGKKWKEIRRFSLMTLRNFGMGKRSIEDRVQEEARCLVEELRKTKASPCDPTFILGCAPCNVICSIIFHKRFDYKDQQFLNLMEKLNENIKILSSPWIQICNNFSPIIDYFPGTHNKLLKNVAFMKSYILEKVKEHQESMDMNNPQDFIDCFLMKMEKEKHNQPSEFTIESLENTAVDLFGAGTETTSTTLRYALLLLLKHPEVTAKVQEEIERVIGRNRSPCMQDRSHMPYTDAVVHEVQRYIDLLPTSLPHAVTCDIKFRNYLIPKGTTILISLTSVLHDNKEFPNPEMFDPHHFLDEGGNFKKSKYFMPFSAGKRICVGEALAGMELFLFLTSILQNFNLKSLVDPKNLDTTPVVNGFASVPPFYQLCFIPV
# [11] = Plasma protein binding in rat assessed as free fraction at 1 uM; type: ADME, cell-free
# Cytochrome P450 2C19 = Cytochrome P450 2C19 (Homo sapiens, UniProt P33261); experiment: Reversible inhibition of CYP2C19 in human liver microsomes using S-mephenytoin as substrate incubated for 5 mins in presence of NADPH-generating system by LC-MS/MS analysis; type: ADME, Microsome
# Sequence of Cytochrome P450 2C19 (P33261 whole entry): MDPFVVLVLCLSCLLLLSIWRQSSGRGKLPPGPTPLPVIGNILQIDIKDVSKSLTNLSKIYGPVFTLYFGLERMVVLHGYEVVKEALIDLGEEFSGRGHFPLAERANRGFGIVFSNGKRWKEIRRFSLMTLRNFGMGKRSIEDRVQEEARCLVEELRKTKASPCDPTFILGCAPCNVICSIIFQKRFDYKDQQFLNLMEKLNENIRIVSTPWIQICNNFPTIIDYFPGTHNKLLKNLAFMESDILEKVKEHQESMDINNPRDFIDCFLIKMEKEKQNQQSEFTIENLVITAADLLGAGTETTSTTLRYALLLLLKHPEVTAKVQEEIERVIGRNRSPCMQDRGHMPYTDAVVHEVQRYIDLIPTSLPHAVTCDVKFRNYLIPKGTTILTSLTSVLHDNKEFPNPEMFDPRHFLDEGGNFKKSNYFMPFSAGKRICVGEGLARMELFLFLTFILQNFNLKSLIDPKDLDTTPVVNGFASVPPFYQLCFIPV
# [12] = Oral bioavailability in human; type: ADME, organism-based; details: in vivo
smiles,measurement,setting,value
CNC(=O)C(=O)[C@H](CCC(C)(F)F)NC(=O)[C@@H]1[C@H]2CCC[C@H]2CN1C(=O)[C@@H](NC(=O)OC)C(C)(C)C,log(activity),SARS-CoV-2 [1],1.7
same,Activity,Cytochrome P450 1A2 [2],< 1%
same,Stability,[3],Unstable
same,Ki,CYP3A,110 µM
same,Stability,[4],Unstable
same,Activity,SARS-CoV-2 [5],Dose-Dependent Effect
same,IC50,Cytochrome P450 1A2 [6],> 200 µM
same,fraction unbound at 1 µM,[7],0.27
same,Activity,SARS-CoV-2 [8],Active
same,fold change (FC),SARS-CoV-2 [9],5
same,MRT,[10],2.5 h
same,IC50,Cytochrome P450 2C9,> 200 µM
same,fraction unbound at 1 µM,[11],0.1
same,IC50,Cytochrome P450 2C19,> 200 µM
same,bioavailability,[12],67%
